{
  "source": "patent US11278526B2",
  "about": "“Compounds and methods for treating lupus” (RECEPTOS LLC, priority 2016, dated 2022)",
  "format_in_all_cases": "in vivo",
  "key": {"NZBWF1 mice [1]": {"test_system": "NZBWF1 mice", "assay": "Spleen weight at 42 weeks", "experimental": "To determine the effects of compound 148 on inflammatory infiltrate in the spleen, spleens were weighed at 42 weeks. […] Splenocyte suspensions were then prepared. RBCs were lysed and splenocytes were counted.\nTo determine the effects of compound 5 on inflammatory infiltrate in the spleen, spleens were weighed at 42 weeks. […] The 3 mg/kg dose of compound 5 trended lower indicating fewer inflammatory infiltrates in this organ. Splenocyte suspensions were prepared for all three doses. RBCs were lysed and splenocytes were counted."}, "[2]": {"test_system": "CD4+ T cells, CD8+ T cells, and CD19+ B cells", "assay": "Peripheral lymphocyte counts from whole blood by flow cytometry", "details": "NZBWF1 mice", "experimental": "Lymphocyte counts were measured from whole blood taken at 23, 31, and 36.5 weeks using flow cytometry. Cells were gated for CD4+ T cells, CD8+ T cells, and CD19+ B cells. […] Serum blood urea nitrogen (BUN) was also measured at termination to assess kidney function."}, "[3]": {"test_system": "inflammatory and immune response genes", "assay": "Kidney mRNA levels of inflammatory and immune response genes (QuantiGene Multiplex Assay)", "details": "NZBWF1 mice; 3 mpk PO; n=5", "experimental": "(§1) As explained above, SLE is characterized by aberrant recognition of healthy “self” tissue as antigenic. The resulting immune response is characterized by inflammation. To measure SLE status, mRNA levels were measured for an array of inflammatory and immune response genes from kidneys collected at termination or week 23 (naïve) and stored in RNAlater (n=5). mRNA was quantified using QuantiGene Multiplex Assay."}, "IFN-inducible genes": {"test_system": "IFN-inducible genes", "assay": "mRNA expression of genes responsive to type-1 interferon signaling", "details": "NZBWF1 mice; 3 mpk PO"}, "profibrotic genes": {"test_system": "profibrotic genes", "assay": "Kidney mRNA levels of profibrotic genes", "details": "NZBWF1 mice", "experimental": "as §1\nSLE-related inflammation can lead to fibrotic scarring. mRNA levels were measured for an array of profibrotic genes. […] Expression signals of MMP10, IL-2, IL-6, and TNF were also measured, but were below LLOQ (data not shown)."}, "IFNα": {"test_system": "IFNα", "assay": "Serum IFNα by ELISA", "details": "NZBWF1 mice; all treatment groups 0.3, 1.0, 3.0 mg/kg PO QD; weeks 23, 29, 36, 42; assay sensitivity 7.48 pg/ml", "experimental": "(§2) As discussed above, IFNAR1 (Interferon alpha receptor 1) and its ligand IFNα are important modulators of lupus-associated autoimmune response in humans. Serum IFNα was measured by ELISA (eBioscience kit) at 23, 29, 36, and 42 weeks (FIG. 17). Assay sensitivity was 7.48 pg/ml (dotted line). […] However, several samples at multiple time points were below the sensitivity of the assay (data not shown), consistent with reports that the NZBWF1 model has a weak IFNα signature. To determine whether compound 148 affected IFNAR1 expression, percent surface expression and MFI expression were measured in pDC cells at termination (FIGS. 18A and 18B, respectively)."}, "NZBWF1 mice [4]": {"test_system": "NZBWF1 mice", "assay": "Kidney weight at termination (42 weeks)", "source_text": "In SLE, inflammatory infiltrates known as Tertiary Lymphatic Tissue (TLT) accumulate in the kidney and spleen, among other tissues. As an indirect measure of disease progression, right and left kidneys were weighed (FIGS. 4A-4B) following termination at 42 weeks.\nAs in Example 5, left kidneys were weighed (FIG. 43) following termination at 42 weeks."}, "NZBWF1 mice [5]": {"test_system": "NZBWF1 mice", "assay": "Tertiary Lymphatic Tissue (TLT) scoring in kidney histology", "source_text": "To directly assay disease progression, left kidney histology was observed and sections were stained using H&E (left kidney fixed in 4% PFA prior to staining for infiltrating PMN, lymphocytes, and TLTs) or PAS (for analysis of glomerular glycogen and glycoproteins). No neutrophils were observed. The number of aggregates was counted per section."}, "IFNAR1": {"test_system": "IFNAR1", "assay": "IFNAR1 expression in splenic pDC cells", "details": "NZBWF1 mice, at termination, after five months of treatment", "experimental": "as §2"}, "S1P1R": {"molecular_target": "T1, S1P1R (Mus musculus, UniProt O08530)", "T1 construct": "from tissue; host or cells: spleen", "T1 sequence (O08530 whole entry)": "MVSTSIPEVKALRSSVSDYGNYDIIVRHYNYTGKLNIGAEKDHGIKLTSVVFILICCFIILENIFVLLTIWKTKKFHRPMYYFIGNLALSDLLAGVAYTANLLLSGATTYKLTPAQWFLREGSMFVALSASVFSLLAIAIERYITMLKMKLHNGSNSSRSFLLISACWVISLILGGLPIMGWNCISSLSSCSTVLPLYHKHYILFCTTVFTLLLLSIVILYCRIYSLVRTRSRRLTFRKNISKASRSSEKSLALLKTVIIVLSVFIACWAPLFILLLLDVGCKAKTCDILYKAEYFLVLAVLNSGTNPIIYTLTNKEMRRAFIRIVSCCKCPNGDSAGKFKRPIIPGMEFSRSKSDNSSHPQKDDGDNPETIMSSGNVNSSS", "assay": "S1P1R cell surface expression on splenic CD4+ T cells by flow cytometry", "details": "NZBWF1 mice, splenocytes at termination; 0.3, 1.0, 3.0 mg/kg PO QD", "source_text": "S1P1R is expressed on T and B lymphocytes and is the target for modulation by compound 5. Following agonism of the receptor by compound 5, the receptor is internalized and degraded. To determine whether internalization is occurring in T cells following compound dosing in vivo, both naïve and activated CD4+ T cells were examined for cell surface expression of S1P1R. At termination, spleens were harvested and splenocytes isolated and analyzed for immune cell populations by antibody staining and flow cytometry. S1P1R expression was measured on both activated CD4+ T cells (CD3+CD4+CD44+CD62L−) and naïve T cells (CD3+CD4+CD44−CD62L+)."}, "NZBWF1 mice [6]": {"test_system": "NZBWF1 mice", "assay": "Survival in NZBWF1 SLE mouse model", "details": "0.3, 1.0, 3.0 mg/kg PO QD, Logrank p=0.0229, 0.0308, 0.0201", "experimental": "As in Example 2, compound 5 was tested for efficacy in the same NZB×NZW F1 (“NZBWF1”) mouse model for SLE as compound 148. Six groups of NZBWF1 mice (Jackson Laboratories, stock #100008) were used in the study and were acclimated to the research facility for 6 weeks prior to the start of the study. Weekly measurements of proteinuria (excess serum proteins present in the urine) and body weight began at 20 weeks of age. At 22 weeks of age, the mice were assigned to groups in a balanced manner in order to achieve average body weight and average proteinuria measurements across the groups. One “naive” group consisting of 10 mice was euthanized at the start of treatment and used as a source of tissue for analysis. Treatment began at 22 weeks of age.\nThe five treatment groups were administered cyclophosphamide (positive control, 20 mice; introduced gradually to reduce toxicity (IP, once a week, 10 mg/kg at Weeks 22 and 23 and 50 mg/kg from Week 24 to the end of the study)), vehicle (negative control, 20 mice), or compound 5 (three groups of 20 mice), beginning at 22 weeks of age and observed over the course of 20 weeks. The three groups dosed with compound 5 received 0.3, 1.0, and 3.0 mg/kg PO QD, respectively (20 mice per dosage). Surviving animals were sacrificed at 42 weeks. […] Disease development was evaluated as disclosed in the following examples."}},
  "data": [
    {"smiles": "CC(C)Oc1ccc(-c2nc(-c3cccc4c3CC[C@@H]4N)no2)cc1C#N", "note": "[compound 148, (S)-5-(3-(1-amino-2,3-dihydro-1H-inden-4-yl)-1,2,4-oxadiazol-5-yl)-2-isopropoxy-benzonitrile]", "values": [
      {"measurement": "Spleen weight relative to vehicle", "setting": "NZBWF1 mice [1]; all groups 0.3, 1.0, 3.0 mg/kg PO QD", "result": "significantly lower"},
      {"measurement": "Reduction of overall lymphocyte counts relative to vehicle", "setting": "[2]; whole blood at 23, 31 and 36.5 weeks, all three doses (0.3, 1.0, 3.0 mg/kg PO QD), p<0.05", "result": "> 90", "unit": "%"},
      {"measurement": "CD4+ T cell and CD8+ T cell counts relative to cyclophosphamide", "setting": "[2]; whole blood, flow cytometry", "result": "Significant reductions"},
      {"measurement": "Kidney mRNA level of CCL5 relative to control", "setting": "[3]", "result": "decreased levels"},
      {"measurement": "Kidney mRNA level of CXCL9 relative to control", "setting": "[3]", "result": "decreased levels"},
      {"measurement": "Kidney mRNA level of CXCL10 relative to control", "setting": "[3]", "result": "decreased levels"},
      {"measurement": "Kidney mRNA level of IL-1β relative to control", "setting": "[3]", "result": "decreased levels"},
      {"measurement": "Kidney mRNA level of IL-10 relative to control", "setting": "[3]", "result": "decreased levels"},
      {"measurement": "Kidney mRNA level of TNFSF13b/BAFF relative to control", "setting": "[3]", "result": "decreased levels"},
      {"measurement": "Expression levels of IFN-inducible genes (mRNA)", "setting": "IFN-inducible genes", "result": "no significant effect"},
      {"measurement": "mRNA level of Cdcd88a/Girdin relative to control", "setting": "profibrotic genes; 3 mpk PO", "result": "decreased levels"},
      {"measurement": "mRNA level of LOXL1 relative to control", "setting": "profibrotic genes; 3 mpk PO", "result": "decreased levels"},
      {"measurement": "mRNA level of Lipocalin 2 relative to control", "setting": "profibrotic genes; 3 mpk PO", "result": "decreased levels"},
      {"measurement": "mRNA level of TGFβ2 relative to control", "setting": "profibrotic genes; 3 mpk PO", "result": "decreased levels"},
      {"measurement": "mRNA level of TIMP1 relative to control", "setting": "profibrotic genes; 3 mpk PO", "result": "decreased levels"},
      {"measurement": "mRNA level of Transgelin relative to control", "setting": "profibrotic genes; 3 mpk PO", "result": "decreased levels"},
      {"measurement": "IFGBP2 mRNA levels", "setting": "profibrotic genes; following administration of compound 148", "result": "appeared to increase somewhat"},
      {"measurement": "Serum IFNα levels compared to vehicle", "setting": "IFNα", "result": "lower serum IFNα levels compared to vehicle"},
      {"measurement": "Kidney weight relative to vehicle", "setting": "NZBWF1 mice [4]; 3.0 mg/kg PO QD, p<0.05", "result": "significantly reduced kidney weight relative to vehicle"},
      {"measurement": "Kidney TLT scores compared to naïve mice", "setting": "NZBWF1 mice [5]; 1.0 mg/kg or 3.0 mg/kg PO QD", "result": "TLT scores similar to naïve mice"},
      {"measurement": "Kidney TLT scores relative to vehicle", "setting": "NZBWF1 mice [5]; 0.3, 1.0, 3.0 mg/kg PO QD, p<0.05, lesser degree than cyclophosphamide", "result": "significantly reduced TLT scores relative to vehicle"},
      {"measurement": "MFI of IFNAR1 expression in pDC cells", "setting": "IFNAR1", "result": "very little difference between the groups"},
      {"measurement": "Percent surface expression of IFNAR1 in pDC cells", "setting": "IFNAR1", "result": "very little difference between the groups"}
    ]},
    {"smiles": "CC(C)Oc1ccc(-c2nc(-c3cccc4c3CC[C@@H]4NCCO)no2)cc1C#N", "note": "[compound 5, (S)-5-(3-(1-(2-hydroxyethylamino)-2,3-dihydro-1H-inden-4-yl)-1,2,4-oxadiazol-5-yl)-2-isopropoxy benzonitrile]", "values": [
      {"measurement": "Spleen weight relative to vehicle", "setting": "NZBWF1 mice [1]; 3 mg/kg PO QD", "result": "trended lower"},
      {"measurement": "Spleen weight relative to vehicle", "setting": "NZBWF1 mice [1]; any dose 0.3, 1.0, 3.0 mg/kg PO QD", "result": "lower, but not significant relative to vehicle"},
      {"measurement": "S1P1R expression on activated CD4+ T cells (CD3+CD4+CD44+CD62L−)", "setting": "S1P1R", "result": "reduced in a dose-dependent manner"},
      {"measurement": "S1P1R expression on naïve CD4+ T cells (CD3+CD4+CD44−CD62L+)", "setting": "S1P1R", "result": "reduced in a dose-dependent manner"},
      {"measurement": "Survival compared to vehicle", "setting": "NZBWF1 mice [6]", "result": "improved survival compared to vehicle treated animals"},
      {"measurement": "Left kidney weight relative to vehicle", "setting": "NZBWF1 mice [4]; 1.0 and 3.0 mg/kg PO QD", "result": "significantly reduced kidney weight relative to vehicle"}
    ]}
  ]
}
